Reference: patent US20140288071A1, “INHIBITORS OF NOTUM […] AND METHODS OF THEIR USE” (priority 2011, published 2014)

target: T1, human notum pectinacetyltransferase (Homo sapiens, UniProt Q6P988); assay: Binding assay (OPTS esterase substrate, fluorimetric); assay type: biochemical; details: OPTS substrate 5 μM
T1 construct: made in house; conditioned medium used
T1 sequence (Q6P988 20-496): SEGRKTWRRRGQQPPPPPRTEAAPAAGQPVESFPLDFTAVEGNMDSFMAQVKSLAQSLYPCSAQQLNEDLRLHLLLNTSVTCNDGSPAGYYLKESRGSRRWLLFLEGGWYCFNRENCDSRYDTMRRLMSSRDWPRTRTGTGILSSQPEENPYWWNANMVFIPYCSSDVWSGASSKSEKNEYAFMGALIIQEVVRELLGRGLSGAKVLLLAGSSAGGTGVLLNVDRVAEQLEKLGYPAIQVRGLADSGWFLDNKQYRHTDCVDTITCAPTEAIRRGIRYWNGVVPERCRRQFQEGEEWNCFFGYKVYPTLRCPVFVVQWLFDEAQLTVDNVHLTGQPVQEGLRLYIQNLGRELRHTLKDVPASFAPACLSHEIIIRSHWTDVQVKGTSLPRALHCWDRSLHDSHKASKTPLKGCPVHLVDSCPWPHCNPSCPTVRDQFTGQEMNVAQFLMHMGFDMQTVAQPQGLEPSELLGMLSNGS
Method: Plasmid containing human notum pectinacetyltransferase in pcDNA3.1(+) vector was transfected into HEK293 cells and clones were selecting by growing in presence of 400 ug/mL of G418. Condition media from these cells was used for the assay.

| IC50 [nM] | Compound |
| --- | --- |
| < 25 | Cc1sc2ncnc(SCC(=O)NO)c2c1C [2-((5,6-dimethylthieno[2,3-d]pyrimidin-4-yl)thio)-N-hydroxyacetamide] |
| < 100 | Cc1csc2ncnc(SCC(=O)O)c12 [2-((5-methylthieno[2,3-d]pyrimidin-4-yl)thio)acetic acid] |
| < 25 | CCCNC(=O)CSc1ncnc2sc(C)c(Cl)c12 [2-((5-chloro-6-methylthieno[2,3-d]pyrimidin-4-yl)thio)-N-propylacetamide] |
| < 25 | Cc1sc2ncnc(SCC(=O)NCC#N)c2c1Cl [2-((5-chloro-6-methylthieno[2,3-d]pyrimidin-4-yl)thio)-N-(cyanomethyl)acetamide] |
| < 25 | O=C(O)CSc1ncnc2c(C3CC3)c(C(F)(F)F)sc12 [2-(7-cyclopropyl-6-(trifluoromethyl)thieno[3,2-d]pyrimidin-4-yl)thio)acetic acid] |
| < 25 | Cc1c(Br)sc2ncnc(SCC(=O)O)c12 [2-((6-bromo-5-methylthieno[2,3-d]pyrimidin-4-yl)thio)acetic acid] |
| < 25 | Cc1c(Cl)sc2ncnc(SCC(=O)O)c12 [2-((6-chloro-5-methylthieno[2,3-d]pyrimidin-4-yl)thio)acetic acid] |
| < 25 | CCCOC(=O)CSc1ncnc2sc(C)c(C)c12 [propyl 2-((5,6-dimethylthieno[2,3-d]pyrimidin-4-yl)thio)acetate] |
| < 25 | Cc1sc2ncnc(SCC(=O)NCc3ccncc3)c2c1Cl [2-((5-chloro-6-methylthieno[2,3-d]pyrimidin-4-yl)thio)-N-(pyridin-4-ylmethyl)acetamide] |
| < 25 | Cc1sc2ncnc(SCC(=O)NCc3cccs3)c2c1Cl [2-((5-chloro-6-methylthieno[2,3-d]pyrimidin-4-yl)thio)-N-(thiophen-2-ylmethyl)acetamide] |
| < 25 | Cc1sc2ncnc(SCC(=O)NS(=O)(=O)C3CC3)c2c1C [N-(cyclopropylsulfonyl)-2-((5,6-dimethylthieno[2,3-d]pyrimidin-4-yl)thio)acetamide] |
| < 25 | Cc1sc2c(SCC(=O)O)ncnc2c1C [2-((6,7-dimethylthieno[3,2-d]pyrimidin-4-yl)thio)acetic acid] |
| < 25 | Cc1sc2ncnc(SCC(=O)Nc3n[nH]c4cccc(Cl)c34)c2c1C [N-(4-chloro-1H-indazol-3-yl)-2-((5,6-dimethylthieno[2,3-d]pyrimidin-4-yl)thio)acetamide] |
| < 25 | Cc1sc2ncnc(SCC(=O)Nc3ccccc3F)c2c1C [2-((5,6-dimethylthieno[2,3-d]pyrimidin-4-yl)thio)-N-(2-fluorophenyl)acetamide] |
| < 25 | CCc1sc2ncnc(SCC(=O)O)c2c1C [2-((6-ethyl-5-methylthieno[2,3-d]pyrimidin-4-yl)thio)acetic acid] |
| < 25 | COC(=O)CSc1ncnc2c(C3CC3)c(Cl)sc12 [methyl 2-((6-chloro-7-cyclopropylthieno[3,2-d]pyrimidin-4-yl)thio)acetate] |
| < 100 | Cc1sc2ncnc(SCC(=O)NCc3cccs3)c2c1C [2-((5,6-dimethylthieno[2,3-d]pyrimidin-4-yl)thio)-N-(thiophen-2-ylmethyl)acetamide] |
| < 25 | COc1cc2c(cc1OC)CN(C(=O)CSc1ncnc3sc(C)c(C)c13)C2 [1-(5,6-dimethoxyisoindolin-2-yl)-2-((5,6-dimethylthieno[2,3-d]pyrimidin-4-yl)thio)ethanone] |
| < 25 | Cc1csc(CCNC(=O)CSc2ncnc3sc(C)c(Cl)c23)n1 [2-((5-chloro-6-methylthieno[2,3-d]pyrimidin-4-yl)thio)-N-(2-(4-methylthiazol-2-yl)ethyl)acetamide] |
| < 25 | COC(=O)CSc1ncnc2sc(C3CC3)c(C)c12 [methyl 2-((6-cyclopropyl-5-methylthieno[2,3-d]pyrimidin-4-yl)thio)acetate] |
| < 25 | COC(=O)CSc1ncnc2sc(C)c(C3CC3)c12 [methyl 2-((5-cyclopropyl-6-methylthieno[2,3-d]pyrimidin-4-yl)thio)acetate] |
| < 25 | CCS(=O)(=O)NC(=O)CSc1ncnc2sc(C)c(C)c12 [2-((5,6-dimethylthieno[2,3-d]pyrimidin-4-yl)thio)-N-(ethylsulfonyl)acetamide] |
| < 250 | Cc1sc2ncnc(SCC(=O)N3CCC(C(N)=O)CC3)c2c1C [1-(2-((5,6-dimethylthieno[2,3-d]pyrimidin-4-yl)thio)acetyl)piperidine-4-carboxamide] |
| < 50 | Cc1c(C(C)C)sc2ncnc(SCC(=O)O)c12 [2-((6-isopropyl-5-methylthieno[2,3-d]pyrimidin-4-yl)thio)acetic acid] |
| < 25 | Cc1sc2ncnc(SCC(=O)NCCc3c[nH]cn3)c2c1Cl [N-(2-(1H-imidazol-4-yl)ethyl)-2-((5-chloro-6-methylthieno[2,3-d]pyrimidin-4-yl)thio)acetamide] |
| < 25 | Cc1sc2ncnc(SCC(=O)NCc3ccco3)c2c1C [2-((5,6-dimethylthieno[2,3-d]pyrimidin-4-yl)thio)-N-(furan-2-ylmethyl)acetamide] |
| < 25 | Cc1c(Br)sc2c(SCC(=O)O)ncnc12 [2-((6-bromo-7-methylthieno[3,2-d]pyrimidin-4-yl)thio)acetic acid] |
| < 100 | Cc1ccc(S(=O)(=O)NC(=O)CSc2ncnc3sc(C)c(C)c23)nc1 [2-((5,6-dimethylthieno[2,3-d]pyrimidin-4-yl)thio)-N-((5-methylpyridin-2-yl)sulfonyl)acetamide] |

target: T1, human notum pectinacetyltransferase; assay: Reporter assay (CellSensor LEF/TCF-bla FreeStyle 293F cells, Wnt3a and notum conditioned media); assay type: cell-based; details: not given
Method: Plasmid containing human notum pectinacetyltransferase in pcDNA3.1(+) vector was transfected into HEK293 cells and clones were selecting by growing in presence of 400 ug/mL of G418. […] L cells overexpressing and secreting Wnt3a into the conditioned media were purchased from ATCC.
The assay protocol was as follows. […] The cell growth medium consisted of DMEM with 10% Dialyzed FBS, 5 μg/ml Blasticidin (Invitrogen, R210-01), 0.1 mM NEAA, 25 mM HEPES and 1×GPS. Cells were then trypsinized by first rinsing with PBS, followed by addition of 5 mL of trypsin and incubation of plates at room temperature for two minutes. A total of 10 mL of assay media (Opti-MEM, plus 0.5% dialyzed FBS, 0.1 mM NEAA, 1 mM sodium pyruvate, 10 mM HEPES, 1×GPS) was then added per 15 cm plate. Cells were counted and suspended at 0.75 million cells per mL. […] After incubation of cells at 37° C. for 3 hours, 10 μL of 30 mM LiCl in assay medium was added per well, followed by incubation at 37° C. for another 3 hours. […] Ten μL of the Wnt3a/notum pentinacetyltransferase mixture was then transferred from Greiner plates to each well of the 384-well plates containing the CellSensor cells. After incubation of cells overnight at 37° C., reactions were developed by addition of […] of 1×CCF4 (Invitrogen, Catalogue number K1085) to each well, covering the entire 384-well plate, and gentle rocking in the dark at room temperature for 3 hours.

| EC50 [nM] | Compound |
| --- | --- |
| < 1000 | Cc1sc2ncnc(SCC(=O)NO)c2c1C [2-((5,6-dimethylthieno[2,3-d]pyrimidin-4-yl)thio)-N-hydroxyacetamide] |
| < 1000 | COC(=O)CSc1ncnc2c(C)c(C#N)sc12 [methyl 2-((6-cyano-7-methylthieno[3,2-d]pyrimidin-4-yl)thio)acetate] |
| < 1000 | Cc1sc2ncnc(SCC(=O)NCC#N)c2c1Cl [2-((5-chloro-6-methylthieno[2,3-d]pyrimidin-4-yl)thio)-N-(cyanomethyl)acetamide] |
| < 1000 | O=C(O)CSc1ncnc2c(C3CC3)c(C(F)(F)F)sc12 [2-(7-cyclopropyl-6-(trifluoromethyl)thieno[3,2-d]pyrimidin-4-yl)thio)acetic acid] |
| < 1000 | Cc1c(Cl)sc2c(SCC(=O)NCCN3CCCCC3)ncnc12 [2-((6-chloro-7-methylthieno[3,2-d]pyrimidin-4-yl)thio)-N-(2-(piperidin-1-yl)ethyl)acetamide] |
| < 1000 | Cc1c(Br)sc2ncnc(SCC(=O)O)c12 [2-((6-bromo-5-methylthieno[2,3-d]pyrimidin-4-yl)thio)acetic acid] |
| < 1000 | CCCOC(=O)CSc1ncnc2sc(C)c(C)c12 [propyl 2-((5,6-dimethylthieno[2,3-d]pyrimidin-4-yl)thio)acetate] |
| < 5000 | Cc1c(C2CC2)sc2ncnc(SCC(=O)O)c12 [2-((6-cyclopropyl-5-methylthieno[2,3-d]pyrimidin-4-yl)thio)acetic acid] |
| < 5000 | Cc1sc2ncnc(SCC(=O)NC(C)CO)c2c1Cl (stereo not drawn) [2-((5-chloro-6-methylthieno[2,3-d]pyrimidin-4-yl)thio)-N-(1-hydroxypropan-2-yl)acetamide] |
| < 1000 | Cc1sc2ncnc(SCC(=O)N(C)CC(=O)O)c2c1Cl [2-(2-((5-chloro-6-methylthieno[2,3-d]pyrimidin-4-yl)thio)-N-methylacetamido)acetic acid] |
| < 1000 | Cc1c(Cl)sc2c(SCC(=O)NCc3cccs3)ncnc12 [2-((6-chloro-7-methylthieno[3,2-d]pyrimidin-4-yl)thio)-N-(thiophen-2-ylmethyl)acetamide] |
| < 5000 | Cc1sc2ccnc(SCC(=O)O)c2c1Cl [2-((3-chloro-2-methylthieno[3,2-c]pyridin-4-yl)thio)acetic acid] |
| < 1000 | Cc1c(C#N)sc2c(SCC(=O)O)ncnc12 [2-((6-cyano-7-methylthieno[3,2-d]pyrimidin-4-yl)thio)acetic acid] |
| < 1000 | Cc1sc2ncnc(SCC(=O)NS(C)(=O)=O)c2c1Cl [2-((5-chloro-6-methylthieno[2,3-d]pyrimidin-4-yl)thio)-N-(methylsulfonyl)acetamide] |
